SMILES strings stand for the structures. The source made the active and inactive calls. The calls are words filed in the database; no cut-off is given here.

In experiment [1] the target is NT-3 growth factor receptor (Homo sapiens) (UniProt Q16288). In words: Inhibition of TRKC (unknown origin) at 1 uM by Ambit Kinomescan binding assay relative to control.
Experiment [2] has as its target Serine/threonine-protein kinase 32C (Homo sapiens) (UniProt Q86UX6). Kind of experiment: Inhibition of YANK3 Lys2 labeling site in human A-375 cells at 0.05 uM by KiNativ Profiling analysis relative to control. It counts as cell-based.
Experiment [3] concerns the target Dual specificity protein kinase TTK (Homo sapiens) (UniProt P33981). In words: Inhibition of TTK (unknown origin) at 1 uM by Ambit Kinomescan binding assay relative to control.
Experiment [4] concerns the target Mitogen-activated protein kinase 1 (Homo sapiens) (UniProt P28482). Kind of experiment: Inhibition of ERK2 (unknown origin) at 1 uM by Ambit Kinomescan binding assay relative to control.
The subject of experiment [5] is Tyrosine-protein kinase ABL1 (Homo sapiens), P00519 [F317I]. Kind of experiment: Inhibition of nonphosphorylated ABL1 F317I mutant (unknown origin) at 1 uM by Ambit Kinomescan binding assay relative to control.
Experiment [6] concerns the target Serine/threonine-protein kinase 38 (Homo sapiens) (UniProt Q15208). Kind of experiment: Inhibition of NDR1 ACT labeling site in human A-375 cells at 0.5 uM by KiNativ Profiling analysis relative to control. The class given is cell-based.
Experiment [7] addresses T1, Dual specificity mitogen-activated protein kinase kinase 6 (Homo sapiens) (UniProt P52564).
T1 sequence (whole entry): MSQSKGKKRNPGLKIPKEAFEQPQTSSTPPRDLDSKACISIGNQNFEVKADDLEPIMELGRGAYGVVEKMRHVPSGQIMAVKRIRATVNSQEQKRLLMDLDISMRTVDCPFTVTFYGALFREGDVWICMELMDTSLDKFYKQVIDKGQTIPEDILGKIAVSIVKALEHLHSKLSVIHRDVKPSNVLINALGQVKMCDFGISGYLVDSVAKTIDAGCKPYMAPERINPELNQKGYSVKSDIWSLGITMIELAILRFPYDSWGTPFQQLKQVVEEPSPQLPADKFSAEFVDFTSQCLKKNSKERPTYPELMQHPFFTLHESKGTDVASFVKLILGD
Kind of experiment: Inhibition of MAP2K6 ACT labeling site in human Huh-7 cells at 1 uM by KiNativ Profiling analysis relative to control. It counts as cell-based.

The target in experiment [8] is Tyrosine-protein kinase CSK (Homo sapiens, UniProt P41240). Kind of experiment: Inhibition of CSK ACT labeling site harbouring VSDFGLTKEASSTQDTGKLPVK in human A-375 cells at 0.5 uM by KiNativ Profiling analysis relative to control. It counts as cell-based.
Chain of Tyrosine-protein kinase CSK (P41240 2-450 limits assumed): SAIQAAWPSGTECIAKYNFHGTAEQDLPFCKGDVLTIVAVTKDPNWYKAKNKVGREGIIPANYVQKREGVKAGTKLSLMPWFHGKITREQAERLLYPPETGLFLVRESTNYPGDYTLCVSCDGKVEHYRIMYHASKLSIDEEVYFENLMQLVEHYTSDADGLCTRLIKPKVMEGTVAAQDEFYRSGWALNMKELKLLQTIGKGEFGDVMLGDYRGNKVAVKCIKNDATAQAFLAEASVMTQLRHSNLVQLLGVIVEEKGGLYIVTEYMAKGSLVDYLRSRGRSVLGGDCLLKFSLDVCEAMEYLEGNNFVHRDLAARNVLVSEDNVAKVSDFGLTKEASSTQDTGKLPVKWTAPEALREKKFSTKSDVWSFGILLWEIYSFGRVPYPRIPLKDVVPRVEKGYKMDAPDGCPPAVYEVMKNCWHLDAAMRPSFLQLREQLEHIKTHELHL
For experiment [9], the target named is Mitogen-activated protein kinase 3 (Homo sapiens) (UniProt P27361). In words: Inhibition of ERK1 (unknown origin) at 10 uM by Ambit Kinomescan binding assay.
Chain of Mitogen-activated protein kinase 3 (Homo sapiens) (P27361 whole entry): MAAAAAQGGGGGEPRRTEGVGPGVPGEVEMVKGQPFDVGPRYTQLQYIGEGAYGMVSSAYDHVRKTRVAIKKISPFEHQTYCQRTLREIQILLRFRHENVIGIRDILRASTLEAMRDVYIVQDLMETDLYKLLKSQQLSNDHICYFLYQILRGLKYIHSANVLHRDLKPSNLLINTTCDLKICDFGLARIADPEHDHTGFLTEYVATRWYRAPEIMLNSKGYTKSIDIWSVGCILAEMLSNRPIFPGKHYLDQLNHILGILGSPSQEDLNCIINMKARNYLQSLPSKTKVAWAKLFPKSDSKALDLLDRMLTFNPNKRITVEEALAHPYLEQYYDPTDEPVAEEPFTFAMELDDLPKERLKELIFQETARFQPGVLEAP
Experiment [10] has as its system Epidermal growth factor receptor (Homo sapiens), P00533 [UNDEFINED MUTATION]. In words: Inhibition of EGFR S752-I759del mutant (unknown origin) at 10 uM by Ambit Kinomescan binding assay relative to control.
The target of experiment [11] is T2, Phosphatidylinositol 5-phosphate 4-kinase type-2 gamma (Homo sapiens) (UniProt Q8TBX8).
T2 sequence (whole entry): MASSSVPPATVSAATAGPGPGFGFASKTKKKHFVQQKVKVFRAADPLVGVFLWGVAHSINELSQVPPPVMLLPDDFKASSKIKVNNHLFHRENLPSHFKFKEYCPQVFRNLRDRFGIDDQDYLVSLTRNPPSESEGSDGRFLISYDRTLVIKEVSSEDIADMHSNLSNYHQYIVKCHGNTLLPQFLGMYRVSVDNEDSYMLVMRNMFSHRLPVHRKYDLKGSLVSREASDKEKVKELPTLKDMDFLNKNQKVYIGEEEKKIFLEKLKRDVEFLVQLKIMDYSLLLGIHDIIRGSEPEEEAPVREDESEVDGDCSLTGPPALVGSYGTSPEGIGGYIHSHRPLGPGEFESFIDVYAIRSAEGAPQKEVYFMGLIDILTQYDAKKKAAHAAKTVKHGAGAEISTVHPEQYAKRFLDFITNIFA
In words: Inhibition of PIP5K2C ATP labeling site harbouring VKELPTLKDMDFLNK in human Huh-7 cells at 1 uM by KiNativ Profiling analysis relative to control. The class given is cell-based.

The target in experiment [12] is T3, EKC/KEOPS complex subunit TP53RK (Homo sapiens) (UniProt Q96S44).
T3 sequence (whole entry): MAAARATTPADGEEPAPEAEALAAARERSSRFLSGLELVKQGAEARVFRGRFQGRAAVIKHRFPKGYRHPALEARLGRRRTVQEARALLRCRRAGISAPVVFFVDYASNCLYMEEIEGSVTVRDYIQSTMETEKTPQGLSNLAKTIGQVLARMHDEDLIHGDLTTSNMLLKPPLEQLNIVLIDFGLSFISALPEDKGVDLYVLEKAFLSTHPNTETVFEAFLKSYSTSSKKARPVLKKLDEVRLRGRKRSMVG
In words: Inhibition of PRPK ATP labeling site in human Huh-7 cell lysate at 1 uM by KiNativ Profiling analysis relative to control. The class given is subcellular.

Chain of Serine/threonine-protein kinase 38 (Homo sapiens) (Q15208 2-465 limits assumed): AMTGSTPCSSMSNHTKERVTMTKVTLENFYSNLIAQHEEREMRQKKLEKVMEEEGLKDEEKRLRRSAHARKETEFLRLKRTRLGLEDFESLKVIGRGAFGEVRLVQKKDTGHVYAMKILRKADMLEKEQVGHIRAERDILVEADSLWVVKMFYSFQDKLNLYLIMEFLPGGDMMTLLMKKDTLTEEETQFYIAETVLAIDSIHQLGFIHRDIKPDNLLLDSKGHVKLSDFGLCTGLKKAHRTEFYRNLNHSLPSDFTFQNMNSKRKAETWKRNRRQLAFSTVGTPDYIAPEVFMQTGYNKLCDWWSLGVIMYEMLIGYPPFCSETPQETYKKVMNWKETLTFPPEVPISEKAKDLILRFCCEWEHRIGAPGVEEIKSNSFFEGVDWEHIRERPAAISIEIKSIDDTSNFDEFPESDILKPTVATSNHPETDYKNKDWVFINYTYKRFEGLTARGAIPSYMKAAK
Chain of Epidermal growth factor receptor (Homo sapiens), P00533 [UNDEFINED MUTATION] (P00533 whole entry, looked up, stated change not applied): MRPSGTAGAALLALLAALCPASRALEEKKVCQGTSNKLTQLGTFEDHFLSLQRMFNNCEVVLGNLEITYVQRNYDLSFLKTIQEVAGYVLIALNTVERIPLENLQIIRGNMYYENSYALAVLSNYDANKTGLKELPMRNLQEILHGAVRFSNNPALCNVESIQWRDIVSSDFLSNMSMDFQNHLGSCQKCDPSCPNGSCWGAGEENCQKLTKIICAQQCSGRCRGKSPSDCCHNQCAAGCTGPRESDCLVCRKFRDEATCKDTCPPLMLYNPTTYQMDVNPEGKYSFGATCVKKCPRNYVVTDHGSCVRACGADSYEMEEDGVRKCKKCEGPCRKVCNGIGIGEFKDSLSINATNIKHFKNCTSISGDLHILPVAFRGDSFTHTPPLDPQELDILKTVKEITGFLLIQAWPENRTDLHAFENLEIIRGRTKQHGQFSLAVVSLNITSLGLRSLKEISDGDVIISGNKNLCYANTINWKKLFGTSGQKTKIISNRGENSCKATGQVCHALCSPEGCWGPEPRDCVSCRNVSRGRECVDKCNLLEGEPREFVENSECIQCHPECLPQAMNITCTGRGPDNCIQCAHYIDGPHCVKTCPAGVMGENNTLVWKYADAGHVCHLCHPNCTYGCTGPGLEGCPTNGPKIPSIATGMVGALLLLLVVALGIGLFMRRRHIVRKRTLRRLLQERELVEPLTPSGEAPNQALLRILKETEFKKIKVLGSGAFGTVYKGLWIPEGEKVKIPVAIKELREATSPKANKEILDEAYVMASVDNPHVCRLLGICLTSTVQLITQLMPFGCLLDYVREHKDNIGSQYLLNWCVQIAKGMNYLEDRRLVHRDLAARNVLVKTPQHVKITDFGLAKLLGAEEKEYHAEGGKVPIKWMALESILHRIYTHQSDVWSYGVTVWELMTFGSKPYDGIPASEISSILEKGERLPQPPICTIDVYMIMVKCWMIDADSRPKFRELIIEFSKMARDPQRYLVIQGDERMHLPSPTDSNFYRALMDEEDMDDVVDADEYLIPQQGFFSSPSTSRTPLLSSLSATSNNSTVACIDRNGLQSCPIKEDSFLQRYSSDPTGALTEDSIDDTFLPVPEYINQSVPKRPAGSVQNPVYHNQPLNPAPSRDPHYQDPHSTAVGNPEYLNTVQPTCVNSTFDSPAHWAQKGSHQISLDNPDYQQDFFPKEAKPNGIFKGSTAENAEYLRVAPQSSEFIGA
Chain of Mitogen-activated protein kinase 1 (Homo sapiens) (P28482 whole entry): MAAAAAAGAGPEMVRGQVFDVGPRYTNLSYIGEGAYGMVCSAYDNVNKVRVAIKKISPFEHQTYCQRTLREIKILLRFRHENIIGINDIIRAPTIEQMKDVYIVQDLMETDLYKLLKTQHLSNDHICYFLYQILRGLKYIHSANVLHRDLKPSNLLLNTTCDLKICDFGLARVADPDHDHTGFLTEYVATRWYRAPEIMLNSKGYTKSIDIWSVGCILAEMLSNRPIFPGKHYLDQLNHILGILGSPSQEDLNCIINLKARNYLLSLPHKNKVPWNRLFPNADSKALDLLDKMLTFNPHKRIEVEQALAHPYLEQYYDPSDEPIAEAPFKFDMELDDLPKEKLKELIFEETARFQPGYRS
Chain of Tyrosine-protein kinase ABL1 (Homo sapiens), P00519 [F317I] (P00519 whole entry F317I): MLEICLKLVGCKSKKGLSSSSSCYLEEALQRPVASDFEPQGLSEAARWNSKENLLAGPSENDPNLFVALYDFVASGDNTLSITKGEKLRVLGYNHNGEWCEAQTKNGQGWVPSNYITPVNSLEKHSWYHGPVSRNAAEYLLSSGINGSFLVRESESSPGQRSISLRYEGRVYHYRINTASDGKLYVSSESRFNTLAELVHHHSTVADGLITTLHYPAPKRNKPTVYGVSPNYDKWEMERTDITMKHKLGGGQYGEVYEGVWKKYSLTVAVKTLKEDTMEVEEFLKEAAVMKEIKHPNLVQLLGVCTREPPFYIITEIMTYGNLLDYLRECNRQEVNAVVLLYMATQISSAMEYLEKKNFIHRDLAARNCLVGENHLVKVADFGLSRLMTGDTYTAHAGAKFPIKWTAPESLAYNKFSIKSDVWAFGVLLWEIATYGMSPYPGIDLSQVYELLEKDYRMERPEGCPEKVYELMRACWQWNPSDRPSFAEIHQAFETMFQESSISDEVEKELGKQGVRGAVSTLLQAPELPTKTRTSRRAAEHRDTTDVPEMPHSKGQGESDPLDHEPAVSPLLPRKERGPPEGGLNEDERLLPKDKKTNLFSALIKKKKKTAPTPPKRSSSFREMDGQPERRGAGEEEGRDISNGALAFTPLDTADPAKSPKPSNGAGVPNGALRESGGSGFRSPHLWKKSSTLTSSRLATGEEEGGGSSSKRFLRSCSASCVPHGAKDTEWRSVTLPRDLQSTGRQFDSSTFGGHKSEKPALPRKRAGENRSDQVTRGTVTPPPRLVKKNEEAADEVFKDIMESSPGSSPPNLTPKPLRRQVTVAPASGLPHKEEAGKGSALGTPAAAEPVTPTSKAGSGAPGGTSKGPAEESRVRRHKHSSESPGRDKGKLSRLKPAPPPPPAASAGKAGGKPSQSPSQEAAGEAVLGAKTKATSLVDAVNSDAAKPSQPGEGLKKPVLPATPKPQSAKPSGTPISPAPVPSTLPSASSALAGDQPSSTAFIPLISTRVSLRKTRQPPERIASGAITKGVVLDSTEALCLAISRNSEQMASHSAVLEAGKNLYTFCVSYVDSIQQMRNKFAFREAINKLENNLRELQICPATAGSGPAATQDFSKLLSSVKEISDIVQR
Chain of NT-3 growth factor receptor (Homo sapiens) (Q16288 32-839 limits assumed): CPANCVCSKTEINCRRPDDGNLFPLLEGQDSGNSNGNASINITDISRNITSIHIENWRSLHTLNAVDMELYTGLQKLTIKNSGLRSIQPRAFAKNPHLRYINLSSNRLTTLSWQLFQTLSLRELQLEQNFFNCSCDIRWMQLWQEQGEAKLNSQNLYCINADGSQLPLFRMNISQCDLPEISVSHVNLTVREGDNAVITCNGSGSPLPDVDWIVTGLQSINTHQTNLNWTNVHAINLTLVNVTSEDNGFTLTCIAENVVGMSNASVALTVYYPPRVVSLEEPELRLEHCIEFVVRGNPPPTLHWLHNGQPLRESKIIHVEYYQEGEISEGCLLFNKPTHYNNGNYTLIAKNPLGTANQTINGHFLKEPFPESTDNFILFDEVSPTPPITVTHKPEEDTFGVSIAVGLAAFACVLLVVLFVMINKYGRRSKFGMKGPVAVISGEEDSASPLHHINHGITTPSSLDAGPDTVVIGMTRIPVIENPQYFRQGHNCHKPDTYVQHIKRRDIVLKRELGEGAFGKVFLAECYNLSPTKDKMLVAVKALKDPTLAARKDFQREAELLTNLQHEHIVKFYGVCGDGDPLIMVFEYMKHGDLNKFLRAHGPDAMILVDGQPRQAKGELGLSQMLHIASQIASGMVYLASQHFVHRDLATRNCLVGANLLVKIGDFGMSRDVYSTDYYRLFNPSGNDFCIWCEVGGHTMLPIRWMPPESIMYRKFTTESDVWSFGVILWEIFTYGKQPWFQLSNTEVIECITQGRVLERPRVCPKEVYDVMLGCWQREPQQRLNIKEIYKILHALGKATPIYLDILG

Consider `CCN1CCN(Cc2ccc(NC(=O)c3ccc(C)c(/C=C/c4cnc5[nH]ccc5c4OC)c3)cc2C(F)(F)F)CC1`, for which the inhibition in experiment [1] is 47%; in [2], -4.2%; in experiment [3], 56%; in [4], 100%; in experiment [5] it was 19%.

Take `CCN1CCN(Cc2ccc(NC(=O)c3ccc(C)c(Oc4ccnc5[nH]ccc45)c3)cc2C(F)(F)F)CC1`: the inhibition in [6] is -4.5%; in experiment [7], 9.2%; in experiment [8], 36.5%; in experiment [10], 4.6%; in experiment [11] it was 2.9%. Also, in [9], the inhibition result is “inactive”.

Turning to `CNc1cc(Oc2cc(C(=O)Nc3cc(N4CCN(C)CC4)cc(C(F)(F)F)c3)ccc2C)ncn1`, the inhibition in experiment [12] is -6%.

Broadly, the inhibition is the drop in the measured response relative to a control, in per cent.

For the origin of these results see ChEMBL document CHEMBL5696442, “Discovery of type II inhibitors of TGFβ-activated kinase 1 (TAK1) and mitogen-activated protein kinase kinase kinase kinase 2 (MAP4K2)” (J Med Chem, 2015).
